Drawing on publication PMC5668625 (Biochemistry and Biophysics Reports, 2015), this text covers Ki for one compound.

Structures are written as SMILES.

For this assay, the target named is human phosphoglucose isomerase (hPGI) / autocrine motility factor (Homo sapiens, UniProt P06744). Kind of assay: end-point isomerization kinetics. Type of assay: biochemical.

Regarding `O=C(O)[C@H](O)[C@@H](O)[C@H](O)[C@H](O)COP(=O)(O)O` [6P-GA, 6-phosphogluconate], the Ki (usually a dissociation constant, usually derived from enzyme kinetics or from competition with a known ligand) was 12 µM.
